The term IC50 denotes the point on the concentration scale where inhibition reaches its midpoint.

One experiment concerns Type III-dependent secretion of ExoU by P. aeruginosa PA103. Nature of the experiment: Tertiary assay: Type III-dependent secretion of ExoU by P. aeruginosa PA103. It counts as cell-based. Particulars: Pseudomonas aeruginosa, ExoU secreted into extracellular medium. An excerpt:
Tertiary assay: inhibition of Type III protein secretion of effectors from a Pseudomonas aeruginosa system. Type III protein secretion is used by P. aeruginosa to secrete several essential virulence determinants. One effector of the type III protein secretion system of P. aeruginosa PA103 is the virulence determinants ExoU.
The amount of Type III-dependent secretion of ExoU by P. aeruginosa PA103 can be determined in a cell-based assay by quantification of the 73.9 kDa ExoU protein secreted into the extracellular medium. Such quantitation can be achieved by growing strain PA103 in a deferrated medium in the presence of nitrilotriacetic acid (an inducer of Type III protein secretion in P. aeruginosa) and either in the presence or absence of putative inhibitors. After a prolonged growth period, the cells are sedimented and the supernatants concentrated by ammonium sulfate precipitation. The proteins in the resuspended pellets are separated by electrophoresis on SDS-polyacrylamide gels. After staining gels with Colloidal Blue™, the 73.9 kDa ExoU band is quantitated by scanning through an imager. The effects of inhibitors on the intensity of the ExoU band may be measured relative to that of untreated controls.
With `O=C(N[C@@H](CSCc1ccccc1)C(=O)O)/C(=C\c1ccc(OCc2ccccc2)cc1)NC(=O)c1ccc(C(F)(F)F)cc1` [Compound 1, (R)-2-[3-(4-Benzyloxyphenyl)-2-(4-trifluoromethylbenzoylamino)acryloylamino]-3-benzylsulfanylpropionic acid], the 50% inhibitory concentration (IC50) was 11.6 µM.

`O=C(N[C@H](CSCc1ccccc1)C(=O)O)/C(=C\c1ccc(-c2ccccc2)cc1)NC(=O)c1ccc(C(F)(F)F)cc1` [Compound 6, (S)-3-Benzylsulfanyl-2-[3-biphenyl-4-yl-2-(4-trifluoromethylbenzoylamino)-acryloylamino]propionic acid] gave an IC50 of 47 µM.

The compound `O=C(N[C@@H](CCSCc1ccccc1)C(=O)O)/C(=C\c1ccc(-c2ccccc2)cc1)NC(=O)c1ccc(C(F)(F)F)cc1` [Compound 7, (S)-4-Benzylsulfanyl-2-[3-biphenyl-4-yl-2-(4-trifluoromethylbenzoylamino)-acryloylamino]butyric acid] returned a half-inhibitory concentration (IC50) of 31 µM.

`O=C(N[C@@H](CSCc1ccccc1)C(=O)O)/C(=C\c1ccc(Oc2ccccc2)cc1)NC(=O)c1ccc(C(F)(F)F)cc1` [Compound 17, (R)-3-Benzylsulfanyl-2-[3-(4-phenoxyphenyl)-2-(4-trifluoromethylbenzoylamino)-acryloylamino]propionic acid]: the IC50 came to 49 µM.

`O=C(N[C@@H](CSCc1ccccc1)C(=O)O)/C(=C\c1cccc(OCc2ccccc2)c1)NC(=O)c1ccc(C(F)(F)F)cc1` [Compound 18, (R)-2-[3-(3-Benzyloxyphenyl)-2-(4-trifluoromethylbenzoylamino)acryloylamino]-3-benzylsulfanylpropionic acid] returned an IC50 of 57 µM.

Regarding `O=C(N[C@@H](CSCc1ccccc1)C(=O)O)/C(=C\c1ccc(Oc2ccccc2)cc1)NC(=O)c1ccc(Br)cc1` [Compound 20, (R)-3-Benzylsulfanyl-2-[2-(4-bromobenzoylamino)-3-(4-phenoxyphenyl)-acryloylamino]propionic acid], inhibition was half-maximal at 37 µM (IC50).

`O=C(N[C@@H](CSCc1ccccc1)C(=O)O)/C(=C\c1cccc(Oc2ccccc2)c1)NC(=O)c1ccc(I)cc1` [Compound 21, (R)-3-Benzylsulfanyl-2-[2-(4-iodobenzoylamino)-3-(3-phenoxyphenyl)-acryloylamino]propionic acid] had an IC50 of 69 µM.

The compound `O=C(N[C@@H](CSCc1ccccc1)C(=O)O)/C(=C\c1ccc(OC(F)(F)F)cc1)NC(=O)c1ccc(I)cc1` [Compound 22, (R)-3-Benzylsulfanyl-2-[2-(4-iodobenzoylamino)-3-(4-trifluoromethoxyphenyl)-acryloylamino]propionic acid] returned a half-inhibitory concentration (IC50) of 47 µM.

`O=C(N[C@@H](COCc1ccccc1)C(=O)O)/C(=C\c1ccc(-c2ccccc2)cc1)NC(=O)c1ccc(C(F)(F)F)cc1` [Compound 23, (S)-3-Benzyloxy-2-[3-biphenyl-4-yl-2-(4-trifluoromethylbenzoylamino)-acryloylamino]propionic acid] had an IC50 of 29 µM.

`O=C(N[C@@H](COCc1ccccc1)C(=O)O)/C(=C\c1ccc(Cl)c(Cl)c1)NC(=O)c1ccc(-c2ccccc2)cc1` [Compound 26, (S)-3-Benzyloxy-2-[2-[(biphenyl-4-carbonyl)amino]-3-(3,4-dichlorophenyl)-acryloylamino]propionic acid] yielded an IC50 of 24 µM.

`O=C(N[C@H](COCc1ccccc1)C(=O)O)/C(=C\c1ccc(Cl)c(Cl)c1)NC(=O)c1ccc(OC(F)(F)F)cc1` [Compound 30, (R)-3-Benzyloxy-2-[3-(3,4-dichlorophenyl)-2-(4-trifluoromethoxybenzoylamino)-acryloylamino]propionic acid]: the concentration for half-maximal inhibition (IC50) is 54 µM.

For the compound `CC(C)c1ccc(/C=C(/NC(=O)c2ccc(C(F)(F)F)cc2)C(=O)N[C@@H](CSCc2ccccc2)C(=O)O)cc1` [Compound 34, (R)-3-Benzylsulfanyl-2-[3-(4-isopropylphenyl)-2-(4-trifluoromethyl-benzoylamino)acryloylamino]propionic acid], the IC50 was found to be 50 µM.

In turn, `O=C(N[C@@H](CSCc1ccccc1)C(=O)O)/C(=C\c1ccc2ccccc2c1)NC(=O)c1ccc(C(F)(F)F)cc1` [Compound 35, (R)-3-Benzylsulfanyl-2-[3-naphthalen-2-yl-2-(4-trifluoromethylbenzoylamino)-acryloylamino]propionic acid] had a concentration for half-maximal inhibition (IC50) of under 12.5 µM.

Turning to `O=C(N[C@@H](Cc1ccc(Cl)cc1)C(=O)O)/C(=C\c1cccc(C(F)(F)F)c1)NC(=O)c1ccc(-c2ccccc2)cc1` [Compound 38, (S)-2-[2-[(Biphenyl-4-carbonyl)amino]-3-(3-trifluoromethylphenyl)acryloylamino]-3-(4-chlorophenyl)propionic acid], 17.3 µM corresponded to half-maximal inhibition (IC50).

Compound `O=C(N[C@H](Cc1ccc(Cl)cc1)C(=O)O)/C(=C\c1cccc(C(F)(F)F)c1)NC(=O)c1ccc(-c2ccccc2)cc1` [Compound 39, (R)-2-[2-[(Biphenyl-4-carbonyl)amino]-3-(3-trifluoromethylphenyl)acryloylamino]-3-(4-chlorophenyl)propionic acid] returned a half-maximal inhibitory concentration (IC50) of 17 µM.

`O=C(N[C@@H](CSCc1ccccc1)C(=O)O)/C(=C\c1cccc(Oc2ccc(Cl)cc2)c1)NC(=O)c1ccc(C(F)(F)F)cc1` [Compound 40, (R)-3-Benzylsulfanyl-2-[3-[3-(4-chlorophenoxy)phenyl]-2-(4-trifluoromethyl-benzoylamino)acryloylamino]propionic acid] displayed an IC50 of 13.1 µM.

As for `O=C(N[C@@H](CSCc1ccccc1)C(=O)O)/C(=C\c1ccc(Oc2ccccc2)cc1)NC(=O)c1ccc(Cl)cc1` [Compound 44, (R)-3-Benzylsulfanyl-2-[2-(4-chlorobenzoylamino)-3-(4-phenoxyphenyl)-acryloylamino]propionic acid], half-maximal inhibition (IC50) required 26.5 µM.

The compound `O=C(N[C@@H](CSCc1ccccc1)C(=O)O)/C(=C\c1cccc(Br)c1)NC(=O)c1ccc(Oc2ccccc2)cc1` [Compound 48, (R)-3-Benzylsulfanyl-2-[3-(3-bromophenyl)-2-(4-phenoxybenzoylamino)-acryloylamino]propionic acid] gave an IC50 of 24.8 µM.

For `O=C(N[C@@H](COCc1ccccc1)C(=O)O)/C(=C\c1ccc(Cl)c(Cl)c1)NC(=O)c1ccc(Oc2ccccc2)cc1` [Compound 49, (S)-3-Benzyloxy-2-[3-(3,4-dichlorophenyl)-2-(4-phenoxybenzoylamino)-acryloylamino]propionic acid], the 50% inhibitory concentration (IC50) amounted to 75.7 µM.

Another experiment has as its system Type III protein secretion of the chimeric SopE‘-’Bla polypeptide (SPI1 type III protein secretion system). Nature of the experiment: Primary assay: Type III protein secretion of the chimeric SopE'-'Bla polypeptide by Salmonella enterica. Type of experiment: cell-based. Particulars: read-out: SopE IC50(μM). A digest of the protocol: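 Salmonella enterica grown under SPI1-inducing conditions expressed a SopE‘-’Bla fusion, with TEM-1 β-lactamase lacking its signal peptide, with or without test compounds. Nitrocefin added to the cultures was hydrolysed only by the secreted fusion, so the colorimetric signal reports type III secretion, and inhibitors lower it.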
Regarding `O=C(N/C(=C/c1ccc(-c2ccccc2)cc1)C(=O)N1CCCCC1C(=O)O)c1ccc(C(F)(F)F)cc1` (stereo not drawn) [Compound 147], the IC50 is 60 µM.

In the case of `O=C(N[C@@H](CSCc1ccccc1)C(=O)O)/C(=C\c1ccccc1Cl)NC(=O)c1ccc(C(F)(F)F)cc1` [Compound 151], the IC50 was found to be 50 µM.

Take `NC(=O)C[C@@H](NC(=O)/C(=C\c1ccc(-c2ccccc2)cc1)NC(=O)c1ccc(C(F)(F)F)cc1)C(=O)O` [Compound 152]: the IC50 turned out to be 100 µM.

For the compound `CC(C)(S)C(NC(=O)/C(=C\c1cccc(Oc2ccccc2)c1)NC(=O)c1ccc(C(F)(F)F)cc1)C(=O)O` (stereo not drawn) [Compound 160], the IC50 came out at 16 µM.

Regarding `Cc1ccc(C(=O)N/C(=C/c2ccc(Cl)c(Cl)c2)C(=O)NC(C(=O)O)C(C)(C)S)cc1` (stereo not drawn) [Compound 161], the half-maximal inhibitory concentration (IC50) is 56 µM.

The record behind these values is US20050250819A1 (priority 2004, published 2005).
